Measured values published in patent publication US7157092B1, “Acyl pseudodipeptides, preparation method and pharmaceutical compositions containing same” (Om Pharma, priority 1998, dated 2007).
Where two headings read alike, the source gives them in different places.

Experiments:
[1] = Weight change in rats of the peritoneal carcinoma study; type: in vivo, BDIX rats
LmCPb antigen [2] = test: Primary response to single injection of LmCPb antigen: in vitro cytokine secretion by lymph node lymphocytes (ELISA); type: in vivo, CBA mice; conditions: single injection LmCPb + adjuvant
Procedure: (§1) CBA mice were administered through the tail a single injection of LmCPb in a 2 μg dose either in combination or not with 50 μg of OM-294-MP adjuvant. A control group was administered one injection of physiological saline buffer (non immunized subjects). Eleven days later, cells of the inguinal and periaortic lymph nodes (groups of 3 mice each) were cultured and the proliferative response directed to the purified LmCPb antigen, to a preparation of whole amastigotes of Leishmania mexicana and to concanvalin A (ConA) was evaluated by measuring tritiated thymidine take-up (^3H-TdR). γ IFN and IL-4 cytokine production by lymph node lymphocytes rechallenged in vitro with LmCPb antigen of Leishmania mexicana or by amastigotes was equally determined by ELISA (MIF00 γ IFN & M4000 IL-4 kits, R&D Systems Europe Ltd, Abingdon, UK) using a sample of each culture supernatant of lymph node lymphocytes before addition of ^3H-TdR.
(§2) Values reported in the tables stand for the mean value±standard deviation (triplicate) expressed in cpm for ^3H-TdR take-up and the arithmetic mean±standard deviation (triplicate) expressed in pg per ml for cytokine production in supernatant fluids.
(§3) Antigen: LmCPb stock solution is prepared at a concentration of 40 μg/ml in PBS (2×).
(§4) The negative control consists of a PBS solution without antigen.
(§5) Antigen-adjuvant mixture: Adjuvants are maintained for 10 minutes at 37° C. before vortexing for 3 minutes. Then, the antigen (1 volume) and the adjuvant (1 volume) are mixed and vortexed briefly before being incubated for 20 minutes at 37° C., and finally the whole mixture is vortexed again for 3 minutes.

gp63 antigen [3] = type: in vivo, CBA mice; conditions: 2 s.c. injections gp63 2 μg with 2×50 μg OM-294-MP or 200 μg BCG
LmCPb antigen [4] = test: Primary response to single injection of Leishmania mexicana LmCPb antigen: lymph node cell proliferation (3H-TdR take-up); type: in vivo, CBA mice; conditions: single injection LmCPb 2 μg + 50 μg adjuvant
Procedure: as §1, §2, §3, §4, §5

[5] = system: predendritic cells (DC-6); conditions: DC-9 stage
gp63 antigen [6] = type: in vivo, CBA mice
[7] = system: predendritic cells (DC-6); test: Dendritic cell maturation: FITC-Dextran conjugate incorporation; conditions: 0.02% g to 25 μg per ml; FIGS. 4, 5
[8] = system: mouse bone marrow stem cells; test: Bone marrow stem cell proliferation (XTT); type: cell-based, C57/BL6 mice; conditions: 7 days incubation, FIG. 1
Procedure: Two six-week old male C57/BL6 mice were killed by CO2 inhalation followed by cervical dislocation. The mice were washed with alcohol, and the skin of the posterior members was entirely removed. The hip, femur and tibia bones were removed by joint disruption. The flesh was grossly removed using a scalpel. The bones were cleaned and the bone ends were cut with scissors. The marrrow was extracted from the bone lumen by injecting three times 1 ml of Dulbecco's Modified Eagle Medium (DH medium) from the extremities which were cut with scissors. The cells were suspended in DH medium and centrifuged at 300×g for 5 minutes. The supernatant fluid was discarded and the stem cells were suspended in DH medium supplemented with 20% foetal calf serum (FCS) The cell concentration was adjusted to 500 000 cells/ml. […]
Proliferation is determined by measuring the oxydation of a chromogenic substrate (XTT) in mitochondria of viable cells.
7 days later, the microtiter plates are centrifuged for 5 minutes at 400×g, and 100 μl of the supernatant fluid are withdrawn and discarded. […] After 8 hour incubation at 37° C. under 8% CO2 in an incubator at 100% RH, the microtiter plates are read with a spectrophotometer at 480 nm against a standard at 690 nm.
The results are expressed as mean values (+standard deviation) by plotting a dose versus response curve. […]

For CCCCCCCCCCCC(=O)O[C@H](CCCCCCCCCCC)CC(=O)NC(CCOP(=O)(O)O)C(=O)NCCCC(COP(=O)(O)O)NC(=O)C[C@H](O)CCCCCCCCCCC (stereo partly drawn) [OM-294-DP, 3-[(R)-3-dodecanoyloxytetradecanoylamino]-4-oxo-5-aza-9-[(R)-3-hydroxytetradecanoylamino]decan-1,10-diol 1, 10-bis(dihydrogenphosphate)], the “Weight of rats (mean ± standard deviation)” value ([1]; Day 0) was 277 ± 19, the “Weight of rats (mean ± standard deviation)” value ([1]; Day 13) was 310 ± 21 and the “Weight of rats (mean ± standard deviation)” value ([1]; Day 20) was 304 ± 23. The “Weight of rats (mean ± standard deviation)” value ([1]; Day 29) was 317 ± 24, the “Weight of rats (mean ± standard deviation)” value ([1]; Day 41) was 327 ± 26 and the “effect on weight change in comparison to NaCl alone” value ([1]; rat, in vivo) was “no significant effect on weight change”.
For CCCCCCCCCCCC(=O)O[C@H](CCCCCCCCCCC)CC(=O)NC(CCOP(=O)(O)O)C(=O)NCCCC(CO)NC(=O)C[C@H](O)CCCCCCCCCCC (stereo partly drawn) [OM-294-MP, 3-[(R)-3-dodecanoyloxytetradecanoylamino]-4-oxo-5-aza-9-[(R)-3-hydroxytetradecanoylamino]-decane-1,10-diol 1-dihydrogenphosphate], the “γ IFN production” value (LmCPb antigen [2]; in vitro: Amastigotes) was 320 pg/mL, the IL-4 production (LmCPb antigen [2]; in vitro: Amastigotes 17 × 10^−5/ml) was 65 pg/mL and the IL-4 production (LmCPb antigen [2]; in vitro: Con A 5 μg/ml) was 360 pg/mL. For the same molecule, the “γ IFN production” value (LmCPb antigen [2]; in vitro: Con A 5 μg/ml) was over 1800 pg/mL, the IL-4 production (LmCPb antigen [2]; in vitro: LmCPb 15 μg/ml) was 130 pg/mL and the “γ IFN production” value (LmCPb antigen [2]; in vitro: LmCPb 15 μg/ml) was 480 pg/mL. The IL-4 production (LmCPb antigen [2]; in vitro: No challenge) was under 8 pg/mL, the “γ IFN production” value (LmCPb antigen [2]; in vitro: No stimulant) was 25 pg/mL and the “murine T lymphocyte proliferation, 3H-TdR take-up” value (from here on “murine T lymphocyte proliferation”) (gp63 antigen [3]; gp63 in vitro 0 μg/ml) was 2.8 ± 0.7 cpm × 10^−3/ml. The “murine T lymphocyte proliferation” value (gp63 antigen [3]; gp63 in vitro 0.16 μg/ml) was 65 ± 11 cpm × 10^−3/ml, the “murine T lymphocyte proliferation” value (gp63 antigen [3]; gp63 in vitro 0.31 μg/ml) was 92 ± 11 cpm × 10^−3/ml and the “murine T lymphocyte proliferation” value (gp63 antigen [3]; gp63 in vitro 0.62 μg/ml) was 93 ± 13 cpm × 10^−3/ml. The “murine T lymphocyte proliferation” value (gp63 antigen [3]; gp63 in vitro 1.25 μg/ml) was 39 ± 7 cpm × 10^−3/ml, the 3H-TdR take-up (LmCPb antigen [4]; in vitro: Amastigotes 1.9 × 10^−6/ml) was 44 ± 7 cpm × 10^−3/ml and the 3H-TdR take-up (LmCPb antigen [4]; in vitro: Amastigotes 6 × 10^−6/ml) was 79 ± 6 cpm × 10^−3/ml. For the same molecule, the 3H-TdR take-up (LmCPb antigen [4]; in vitro: Amastigotes 17 × 10^−6/ml) was 119 ± 4 cpm × 10^−3/ml, the 3H-TdR take-up (LmCPb antigen [4]; in vitro: Con A 5 μg/ml) was 196 ± 10 cpm × 10^−3/ml and the 3H-TdR take-up (LmCPb antigen [4]; in vitro: LmCPb 0.6 μg/ml) was 19 ± 4 cpm × 10^−3/ml. The 3H-TdR take-up (LmCPb antigen [4]; in vitro: LmCPb 1.7 μg/ml) was 40 ± 4 cpm × 10^−3/ml, the 3H-TdR take-up (LmCPb antigen [4]; in vitro: LmCPb 5 μg/ml) was 80 ± 5 cpm × 10^−3/ml and the 3H-TdR take-up (LmCPb antigen [4]; in vitro: LmCPb 15 μg/ml) was 140 ± 10 cpm × 10^−3/ml. For the same molecule, the 3H-TdR take-up (LmCPb antigen [4]; in vitro: No stimulant) was 11 ± 2 cpm × 10^−3/ml, the “CD40 expression, % of mean fluorescence based on LPS-induced expression” value ([5]; FIG. 6) was 39% and the “CD86 expression, % of mean fluorescence based on LPS-induced expression” value ([5]; FIG. 7) was 77%. The “CD83 expression, % of mean fluorescence based on LPS-induced expression” value ([5]; FIG. 8) was 60%, the “CD80 expression, % of mean fluorescence based on LPS-induced expression” value ([5]; FIG. 9) was 62% and the IL-4 concentration (gp63 antigen [6]; gp63 in vitro 0) was under 8 pg/mL. The “γ IFN concentration” value (gp63 antigen [6]; gp63 in vitro 0) was under 9 pg/mL, the IL-4 concentration (gp63 antigen [6]; gp63 in vitro 0.3) was 125 pg/mL and the “γ IFN concentration” value (gp63 antigen [6]; gp63 in vitro 0.3) was 135 pg/mL. The IL-4 concentration (gp63 antigen [6]; gp63 in vitro 0.6) was 83 pg/mL, the “γ IFN concentration” value (gp63 antigen [6]; gp63 in vitro 0.6) was 120 pg/mL and the “differenciation of DC-6 into DC-9 cells (dose vs. response of FITC-Dextran incorporation)” value [7] was “outstanding capacity to induce differenciation of DC-6 into DC-9 cells”. The “cell proliferation of mouse bone marrow stem cells” value [8] was “more moderate response than the diphosphorylated product”.
